Article PMC9508125, “The evolutionary advantage of an aromatic clamp in plant family 3 glycoside exo-hydrolases” (Nature Communications, 2022)
Where a chain is given by its changes, count along the chain named.

How the values were obtained:
Assay type in all cases: biochemical
WT HvExoI = WT HvExoI (Hordeum vulgare, UniProt Q9XEI3); test: Steady-state apparent kinetic constants with substrates; conditions: substance is the substrate
Method: Dependency of activities of WT and mutant HvExoI on pH (McIlvaine buffers in the pH range of 3.5–8.5 at 30 °C) and temperature (100 mM sodium acetate buffer, pH 5.25, temperature range 0–80 °C, 15 min incubations) were determined using 0.2% (w/v) 4NP-Glc[21],[59]. Relative rates of hydrolysis of β-linked poly-, oligosaccharides, and aryl-glucosides were determined using near-homogenous HvExoI at 50 pmoles. […] Kinetic parameters were calculated from the analyses of Michaelis-Menten plots with Grafit 7.0.3[62] and processed by a proportional weighted fit, using nonlinear regression. The relative rates of hydrolysis, kinetic, and inhibition data were rounded to one or two decimal points (Supplementary Tables 2–4).

HvExoI W434A mutant = molecular target: T1, HvExoI W434A mutant (Hordeum vulgare, UniProt Q9XEI3, W459A); test: Relative rates of hydrolysis of poly-, oligosaccharides and aryl-glycosides; conditions: substance is the substrate, nd = activity not detected
T1 sequence (Q9XEI3 26-630 W459A): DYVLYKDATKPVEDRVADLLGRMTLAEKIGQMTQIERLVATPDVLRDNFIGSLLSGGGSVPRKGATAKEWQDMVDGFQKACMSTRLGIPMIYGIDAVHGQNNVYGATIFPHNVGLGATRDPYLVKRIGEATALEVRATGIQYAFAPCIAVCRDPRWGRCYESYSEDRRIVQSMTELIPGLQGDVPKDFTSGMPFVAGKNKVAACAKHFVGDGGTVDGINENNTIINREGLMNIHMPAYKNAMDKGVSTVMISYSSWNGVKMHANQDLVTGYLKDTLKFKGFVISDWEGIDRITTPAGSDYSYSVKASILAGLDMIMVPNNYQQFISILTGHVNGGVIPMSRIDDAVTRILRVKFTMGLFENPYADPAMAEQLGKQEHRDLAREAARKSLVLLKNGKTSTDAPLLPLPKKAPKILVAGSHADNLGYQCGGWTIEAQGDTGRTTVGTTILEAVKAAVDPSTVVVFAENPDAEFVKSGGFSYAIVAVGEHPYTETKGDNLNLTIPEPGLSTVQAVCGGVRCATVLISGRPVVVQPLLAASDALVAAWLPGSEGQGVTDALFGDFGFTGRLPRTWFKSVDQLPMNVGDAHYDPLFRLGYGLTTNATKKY
Outline: (§1)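 50 pmoles near-homogeneous enzyme for relative rates on β-linked substrates; Km/kcat-type constants by nonlinear Michaelis-Menten fit, proportional weighting. 4NP-Glc 0.2% (w/v) for pH (McIlvaine 3.5–8.5, 30 °C) and temperature (NaOAc pH 5.25, 0–80 °C, 15 min) scans.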

[1] = molecular target: T2, HvExoI W286F/W434A mutant (Hordeum vulgare, UniProt Q9XEI3, W311F/W459A); test: as above; conditions: substance is the substrate, nd = activity not detected
T2 sequence (Q9XEI3 26-630 W311F/W459A): T1 sequence (Q9XEI3 26-630 W459A) with W286F
Outline: as §1

HvExoI W434H mutant = molecular target: T3, HvExoI W434H mutant (Hordeum vulgare, UniProt Q9XEI3, W459H); test: as above; conditions: substance is the substrate
T3 sequence (Q9XEI3 26-630 W459H): T1 sequence (Q9XEI3 26-630 W459A) with A434H
Outline: as §1

[2] = molecular target: T4, HvExoI W286F/W434F mutant (Hordeum vulgare, UniProt Q9XEI3, W311F/W459F); test: as above; conditions: substance is the substrate, nd = activity not detected
T4 sequence (Q9XEI3 26-630 W311F/W459F): T1 sequence (Q9XEI3 26-630 W459A) with W286F, A434F
Outline: as §1

WT HvExoI, sequence (Q9XEI3 entry or part of it): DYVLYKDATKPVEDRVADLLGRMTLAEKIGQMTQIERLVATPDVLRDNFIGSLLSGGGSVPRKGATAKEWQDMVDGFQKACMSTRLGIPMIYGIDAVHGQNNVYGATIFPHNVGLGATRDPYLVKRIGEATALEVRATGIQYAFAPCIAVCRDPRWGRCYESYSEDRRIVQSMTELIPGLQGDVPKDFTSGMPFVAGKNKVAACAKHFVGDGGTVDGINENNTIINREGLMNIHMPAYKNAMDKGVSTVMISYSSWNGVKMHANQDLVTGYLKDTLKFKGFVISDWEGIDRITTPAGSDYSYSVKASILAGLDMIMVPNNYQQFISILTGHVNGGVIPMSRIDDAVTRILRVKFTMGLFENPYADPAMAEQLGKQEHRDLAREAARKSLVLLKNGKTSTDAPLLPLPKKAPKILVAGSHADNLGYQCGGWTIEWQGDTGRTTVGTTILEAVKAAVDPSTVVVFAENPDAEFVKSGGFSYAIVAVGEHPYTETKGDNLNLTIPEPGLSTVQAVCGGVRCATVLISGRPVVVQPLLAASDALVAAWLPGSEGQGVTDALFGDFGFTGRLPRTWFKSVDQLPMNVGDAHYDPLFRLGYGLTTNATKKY

OC[C@H]1O[C@@H](O[C@H]2[C@H](O)[C@@H](CO)OC(O)[C@@H]2O)[C@H](O)[C@@H](O)[C@@H]1O (some centres unmarked) [Laminaribiose]
Km (WT HvExoI): 1300 ± 120 µM | kcat (WT HvExoI): 54.2 ± 6.9 s⁻¹ | Activity (relative rate of hydrolysis) (HvExoI W434A mutant): 0.5 ± 0.03 μmole/min per mg protein | Activity (relative rate of hydrolysis) [1]: 0.1 ± 0.001 μmole/min per mg protein | Activity (relative rate of hydrolysis) (HvExoI W434H mutant): 0.8 ± 0.04 μmole/min per mg protein | Activity (relative rate of hydrolysis) [2]: 0.5 ± 0.1 μmole/min per mg protein

laminarin
Km (WT HvExoI): 200 ± 20 µM | kcat (WT HvExoI): 42.1 ± 7.6 s⁻¹ | Activity (relative rate of hydrolysis) (HvExoI W434A mutant): no activity | Activity (relative rate of hydrolysis) [1]: 0.1 ± 0.003 μmole/min per mg protein | Activity (relative rate of hydrolysis) (HvExoI W434H mutant): 0.7 ± 0.02 μmole/min per mg protein | Activity (relative rate of hydrolysis) [2]: 0.2 ± 0.01 μmole/min per mg protein

OC[C@H]1O[C@@H](O[C@@H]2[C@@H](O)[C@H](O[C@H]3[C@H](O)[C@@H](CO)OC(O)[C@@H]3O)O[C@H](CO)[C@H]2O)[C@H](O)[C@@H](O)[C@@H]1O (some centres unmarked) [Laminaritriose]
Activity (relative rate of hydrolysis) (HvExoI W434A mutant): 0.9 ± 0.1 μmole/min per mg protein | Activity (relative rate of hydrolysis) [1]: 0.1 ± 0.002 μmole/min per mg protein | Activity (relative rate of hydrolysis) (HvExoI W434H mutant): 1.5 ± 0.04 μmole/min per mg protein | Activity (relative rate of hydrolysis) [2]: 0.5 ± 0.04 μmole/min per mg protein

OC[C@H]1O[C@@H](O[C@@H]2[C@@H](O)[C@H](O[C@@H]3[C@@H](O)[C@H](O[C@@H]4[C@@H](O)[C@H](O[C@@H]5[C@@H](O)[C@H](O[C@@H]6[C@@H](O)[C@H](O[C@@H]7[C@@H](O)[C@H](O)O[C@H](CO)[C@H]7O)O[C@H](CO)[C@H]6O)O[C@H](CO)[C@H]5O)O[C@H](CO)[C@H]4O)O[C@H](CO)[C@H]3O)O[C@H](CO)[C@H]2O)[C@H](O)[C@@H](O)[C@@H]1O [Laminariheptaose]
Activity (relative rate of hydrolysis) (HvExoI W434A mutant): 1.0 ± 0.1 μmole/min per mg protein | Activity (relative rate of hydrolysis) [1]: 0.1 ± 0.004 μmole/min per mg protein | Activity (relative rate of hydrolysis) (HvExoI W434H mutant): 1.6 ± 0.1 μmole/min per mg protein | Activity (relative rate of hydrolysis) [2]: 0.5 ± 0.04 μmole/min per mg protein
